These results are taken from ChEMBL document CHEMBL1208723, “Synthesis and activity of polyacetylene substituted 2-hydroxy acids, esters, and amides against microbes of clinical importance” (Bioorg Med Chem Lett, 2010).

pIC50: −log10 of the molar value.

In one assay the test system is Pseudomonas aeruginosa. Briefly: Antibacterial activity against Pseudomonas aeruginosa ATCC 27853. Also: test concentration or dose not given here. It counts as functional.
In another assay the test system is Candida tropicalis. Briefly: Antifungal activity against Candida tropicalis. The assay is classed as functional, organism-based.
The next assay deals with Pichia kudriavzevii. Briefly: Antifungal activity against Candida krusei. The assay is classed as functional, organism-based.
The next assay has as its system Streptococcus pyogenes. Nature of the assay: Antibacterial activity against Streptococcus pyogenes ATCC 19615. Also: test concentration or dose not given here. The assay is classed as functional.
The next assay relates to Nakaseomyces glabratus. Nature of the assay: Antifungal activity against Candida glabrata. It counts as functional, organism-based. The conditions noted are these: Nakaseomyces glabratus; read-out: IC50.
The test system of the next assay is Candida parapsilosis. Nature of the assay: Antifungal activity against Candida parapsilosis. It counts as functional, organism-based.
The test system of assay [1] is Staphylococcus aureus. Briefly: Antibacterial activity against methicillin-resistant Staphylococcus aureus. Also: test concentration or dose not given here. It counts as functional.
Assay [2] relates to Staphylococcus aureus. Nature of the assay: Antibacterial activity against Staphylococcus aureus ATCC 25923. Also: test concentration or dose not given here. The assay is classed as functional.
The test system of the next assay is Escherichia coli. Briefly: Antibacterial activity against Escherichia coli ATCC 25922. Also: test concentration or dose not given here. The assay is classed as functional.
The test system of a further assay is Candida albicans. Briefly: Antifungal activity against Candida albicans. The assay is classed as functional, organism-based. The conditions noted are these: Candida albicans; read-out: IC50.

As a reminder, the pIC50 is the IC50 on a negative log10 scale, so that one unit is a factor of ten. As for `CCCCCC#CC#C/C=C/CCCCCC(O)C(=O)OC` (stereo not given), the “inhibition (INH)” value in the assay on Pseudomonas aeruginosa is listed as >75%; with Streptococcus pyogenes, >75%; in the assay on Staphylococcus aureus [1], >75%; in the assay on Staphylococcus aureus [2], 25%; in the assay with Escherichia coli it was 50%. Further, the IC50 entry with Candida tropicalis, with Pichia kudriavzevii and in the assay on Candida parapsilosis was “Not Active” throughout. The values for the pIC50 with Nakaseomyces glabratus and in the assay with Candida albicans were 3.30 and 3.00, respectively.
